According to patent US5085989A, “Method and reagent for quantitative analysis of 3-oxo-5β-steroid” (Daiichi Pure Chemicals Co., Ltd., priority 1986, dated 1992):
Like-named read-outs stand apart in the source and are kept apart here.

Test: Dehydrochoric acid level in serum after intravenous administration (loading test)
Format: in vivo, human (liver cirrhosis patient and healthy subject)
Conditions: human, 1000 mg, 1g intravenously; for AUC: read-out: area under concentration curve of the compound in blood (AUC) (converted); for k el: read-out: elimination constant (Kel) (converted)
Protocol: A liver cirrhosis patient and a healthy subject were each intravenously given 1g of dehydrochoric acid. The changes of the dehydrochoric acid level in serum after the administration were determined according to the same procedure as in Example 1 and using the reagent of Example 1. The results are shown in the appended FIG. 1. The elimination constant (keλ), the half-life period (T 1/2) and the area under concentration curve of the compound in blood (AUC) are given in Table 3.

Question: Which AUC (healthy subject) does the source give for C[C@H](CCC(=O)O)[C@H]1CC[C@H]2[C@@H]3C(=O)C[C@@H]4CC(=O)CC[C@]4(C)[C@H]3CC(=O)[C@]12C [Dehydrochoric Acid, dehydrochoric acid] here?
Answer: The AUC was 45400 ng·h/mL.

Question: What about the k el (healthy subject) of the same molecule?
Answer: The k el was 0.00118 s⁻¹.

Question: What about the AUC (liver cirrhosis patient) of the same molecule?
Answer: Its AUC is 23300 ng·h/mL.

Question: And the k el (liver cirrhosis patient)?
Answer: Its k el is 0.00262 s⁻¹.
